Measured values from patent publication US8314123B2, “5, 6, or 7-substituted -3-(hetero) arylisoquinolinamine derivatives and therapeutic use thereof” (Rexahn Pharmaceuticals, Inc., priority 2006, dated 2012).

system: human cancer cell lines; assay: Growth inhibition against the panel of human tumor cell lines (SRB), overall statements; type: cell-based; conditions: Table 3 cell lines
Procedure: (§1) Cancer cell lines to determine the effect of 5, 6, or 7-substituted-3-(hetero)arylisoquinolinamine compounds were obtained from the following sources: Human MDA-MB-231 (breast), PC3 (prostate), HCT-15 (colon), HCT116 (colon), OVCAR-3 (ovary), Caki-1 (kidney), PANC-1 (pancreas), SNB-19 (glioblastoma) and SK-MEL-28 (melanoma) from the American Type Culture Collection (ATCC) (Manassas, Va.). PC3, OVCAR-3, SK-MEL-28 and SNB-19 were grown in RPMI1640 medium (Invitrogen, Carlsbad, Calif.) supplemented with 10% fetal bovine serum (“FBS”), 1 mM sodium pyruvate, 10 mM HEPES and 100 U/ml penicillin and 100 μg/ml streptomycin (“P/S”). MDA-MB-231, Caki-1, HCT-15 (colon) and PANC-1 cells were maintained in Dulbecco's modified Eagle's medium (“DMEM”, Invitrogen) supplemented with 10% FBS, P/S and 10 mM HEPES. HCT116 cells were maintained in DMEM supplemented with 10% FBS, P/S and 10 mM HEPES for in vitro cell proliferation assay and in RPMI1640 medium supplemented with 10% FBS, 1 mM sodium pyruvate, 10 mM HEPES and P/S for in vitro cell cycle analysis. All cells were incubated at 37° C. under humidified 5% CO2.
(§2) The growth inhibition of the 5, 6, or 7-substituted-3-(hetero)arylisoquinolinamine derivatives against a variety of human tumor cells was evaluated to study the relative importance of particular substituent groups on the compounds. The 5, 6, or 7-substituted-3-(hetero)arylisoquinolinamine derivatives, prepared as described above, were tested with DMSO as a control.
(§3) The growth inhibition assay of representative 5, 6, or 7-substituted-3-(hetero)arylisoquinolinamine derivatives against human tumor cell lines was performed using the Sulforhodamine B (“SRB”) method (Skehan et al., J. National Cancer Institute, 82: 1107-1112 (1990)). Briefly, exponentially growing tumor cells were seeded into a 96-well plate at a density of 2-3×10^3 cells/well and treated with 5, 6, or 7-substituted-3-(hetero)arylisoquinolinamine compounds the next day. Triplicate wells were used for each treatment. The cells were incubated with the various compounds for 96 hours at 37° C. in a humidified 5% CO2 atmosphere. After 96-hour incubation, cells were fixed with 10% trichloroacetic acid (“TCA”), incubated for 1 hour at 4° C., and washed 3 times with tap water. Subsequently, cells were stained with 0.4% sulforhodamine B in 1% acetic acid for 30 minutes, washed 4 times with 1% acetic acid, and air-dried again. After 5 minutes agitation in 10 mM Tris solution, the absorbance of each well was measured at 530 nm using Benchmark Plus Microplate reader (Bio-Rad Laboratories, Hercules, Calif.).
(§4) To translate the OD530 values into the number of live cells in each well, the OD530 values were compared to those on standard OD530-versus-cell number curves generated for each cell line. The percent survival was calculated using the formula: % Survival=live cell number [test]/live cell number [control]×100
(§5) The IC50 values were calculated by non-linear regression analysis.
Using QSAR and medicinal chemistry techniques, a large number of compounds, including the compounds shown in Table 1-2 above, were synthesized. The synthesized compounds were screened against at least four cancer cell lines, PANC-1, MDA-MB-231, HCT116 and Caki-1, at approximately 1 μM concentration. Compounds showing activity in at least one of these cell lines were selected for further screening. From these compounds, thirty compounds were selected for further evaluation as broad-spectrum anti-proliferative agents as shown in the following Table 3.

SMILES | activity in growth inhibition of human cancer cell compared to Compound 23
Cc1ccc2c(N)nc(-c3c(C)cccc3C)cc2c1 [Compound 34, 6-Methyl-3-(2,6-dimethylphenyl)isoquinolin-1-amine] | equal or better activity
COc1cccc(-c2cc3cc(C)ccc3c(N)n2)c1 [Compound 25, 3-(3-Methoxyphenyl)-6-methylisoquinolin-1-amine] | equal or better activity
Cc1ccc(Cl)cc1-c1cc2ccc(Cl)cc2c(N)n1 [Compound 10, 7-chloro-3-(5-chloro-2-methylphenyl)isoquinolin-1-amine] | equal or better activity

system: HCT116 (colon); assay: In vitro cell proliferation assay (SRB), HCT116; type: cell-based; conditions: Homo sapiens, HCT-116; SRB method, 96 hours; Table 3; read-out: Inhibition of cell growth (IC50, μM) HCT116
Procedure: as §1, §2, §3, §4, §5

IC50 | SMILES
0.17 µM | Cc1ccc2c(N)nc(-c3c(C)cccc3C)cc2c1 [Compound 34, 6-Methyl-3-(2,6-dimethylphenyl)isoquinolin-1-amine]
0.19 µM | COc1cccc(-c2cc3cc(C)ccc3c(N)n2)c1 [Compound 25, 3-(3-Methoxyphenyl)-6-methylisoquinolin-1-amine]
0.14 µM | Cc1ccc(Cl)cc1-c1cc2ccc(Cl)cc2c(N)n1 [Compound 10, 7-chloro-3-(5-chloro-2-methylphenyl)isoquinolin-1-amine]

system: SNB-19 (glioblastoma); assay: In vitro cell proliferation assay (SRB), SNB19; type: cell-based; conditions: Homo sapiens, SRB method, 96 hours, read-out: Inhibition of cell growth (IC50, μM) SNB19
Procedure: as §1, §2, §3, §4, §5

IC50 | SMILES
0.24 µM | Cc1ccc2c(N)nc(-c3c(C)cccc3C)cc2c1 [Compound 34, 6-Methyl-3-(2,6-dimethylphenyl)isoquinolin-1-amine]
0.29 µM | COc1cccc(-c2cc3cc(C)ccc3c(N)n2)c1 [Compound 25, 3-(3-Methoxyphenyl)-6-methylisoquinolin-1-amine]
0.19 µM | Cc1ccc(Cl)cc1-c1cc2ccc(Cl)cc2c(N)n1 [Compound 10, 7-chloro-3-(5-chloro-2-methylphenyl)isoquinolin-1-amine]

system: SK-MEL-28 (melanoma); assay: In vitro cell proliferation assay (SRB), SK-MEL-28; type: cell-based; conditions: Homo sapiens, SRB method, 96 hours, read-out: Inhibition of cell growth (IC50, μM) SK-MEL-28
Procedure: as §1, §2, §3, §4, §5

IC50 | SMILES
0.23 µM | Cc1ccc2c(N)nc(-c3c(C)cccc3C)cc2c1 [Compound 34, 6-Methyl-3-(2,6-dimethylphenyl)isoquinolin-1-amine]
0.34 µM | COc1cccc(-c2cc3cc(C)ccc3c(N)n2)c1 [Compound 25, 3-(3-Methoxyphenyl)-6-methylisoquinolin-1-amine]
0.14 µM | Cc1ccc(Cl)cc1-c1cc2ccc(Cl)cc2c(N)n1 [Compound 10, 7-chloro-3-(5-chloro-2-methylphenyl)isoquinolin-1-amine]

system: PC3 (prostate); assay: In vitro cell proliferation assay (SRB), PC3; type: cell-based; conditions: Homo sapiens; SRB method, 96 hours; read-out: Inhibition of cell growth (IC50, μM) PC3
Procedure: as §1, §2, §3, §4, §5

IC50 | SMILES
0.24 µM | Cc1ccc2c(N)nc(-c3c(C)cccc3C)cc2c1 [Compound 34, 6-Methyl-3-(2,6-dimethylphenyl)isoquinolin-1-amine]
0.25 µM | COc1cccc(-c2cc3cc(C)ccc3c(N)n2)c1 [Compound 25, 3-(3-Methoxyphenyl)-6-methylisoquinolin-1-amine]
0.26 µM | Cc1ccc(Cl)cc1-c1cc2ccc(Cl)cc2c(N)n1 [Compound 10, 7-chloro-3-(5-chloro-2-methylphenyl)isoquinolin-1-amine]

system: MDA-MB-231 (breast); assay: In vitro cell proliferation assay (SRB), MDA-MB-231; type: cell-based; conditions: Homo sapiens, SRB method, 96 hours, read-out: Inhibition of cell growth (IC50, μM) MDA-MB-231
Procedure: as §1, §2, §3, §4, §5

IC50 | SMILES
0.14 µM | Cc1ccc2c(N)nc(-c3c(C)cccc3C)cc2c1 [Compound 34, 6-Methyl-3-(2,6-dimethylphenyl)isoquinolin-1-amine]
0.14 µM | COc1cccc(-c2cc3cc(C)ccc3c(N)n2)c1 [Compound 25, 3-(3-Methoxyphenyl)-6-methylisoquinolin-1-amine]
0.11 µM | Cc1ccc(Cl)cc1-c1cc2ccc(Cl)cc2c(N)n1 [Compound 10, 7-chloro-3-(5-chloro-2-methylphenyl)isoquinolin-1-amine]

system: PANC-1 (pancreas); assay: In vitro cell proliferation assay (SRB), PANC-1; type: cell-based; conditions: Homo sapiens, SRB method, 96 hours, read-out: Inhibition of cell growth (IC50, μM) PANC-1
Procedure: as §1, §2, §3, §4, §5

IC50 | SMILES
0.21 µM | Cc1ccc2c(N)nc(-c3c(C)cccc3C)cc2c1 [Compound 34, 6-Methyl-3-(2,6-dimethylphenyl)isoquinolin-1-amine]
0.31 µM | COc1cccc(-c2cc3cc(C)ccc3c(N)n2)c1 [Compound 25, 3-(3-Methoxyphenyl)-6-methylisoquinolin-1-amine]
0.17 µM | Cc1ccc(Cl)cc1-c1cc2ccc(Cl)cc2c(N)n1 [Compound 10, 7-chloro-3-(5-chloro-2-methylphenyl)isoquinolin-1-amine]

system: OVCAR-3 (ovary); assay: In vitro cell proliferation assay (SRB), OVCAR3; type: cell-based; conditions: Homo sapiens, SRB method, 96 hours, read-out: Inhibition of cell growth (IC50, μM) OVCAR3
Procedure: as §1, §2, §3, §4, §5

IC50 | SMILES
0.16 µM | Cc1ccc2c(N)nc(-c3c(C)cccc3C)cc2c1 [Compound 34, 6-Methyl-3-(2,6-dimethylphenyl)isoquinolin-1-amine]
0.18 µM | COc1cccc(-c2cc3cc(C)ccc3c(N)n2)c1 [Compound 25, 3-(3-Methoxyphenyl)-6-methylisoquinolin-1-amine]
0.071 µM | Cc1ccc(Cl)cc1-c1cc2ccc(Cl)cc2c(N)n1 [Compound 10, 7-chloro-3-(5-chloro-2-methylphenyl)isoquinolin-1-amine]

system: Caki-1 (kidney); assay: In vitro cell proliferation assay (SRB), Caki-1; type: cell-based; conditions: Homo sapiens, SRB method, 96 hours, read-out: Inhibition of cell growth (IC50, μM) Caki-1
Procedure: as §1, §2, §3, §4, §5

SMILES | IC50
Cc1ccc2c(N)nc(-c3c(C)cccc3C)cc2c1 [Compound 34, 6-Methyl-3-(2,6-dimethylphenyl)isoquinolin-1-amine] | 0.12 µM
COc1cccc(-c2cc3cc(C)ccc3c(N)n2)c1 [Compound 25, 3-(3-Methoxyphenyl)-6-methylisoquinolin-1-amine] | 0.13 µM
Cc1ccc(Cl)cc1-c1cc2ccc(Cl)cc2c(N)n1 [Compound 10, 7-chloro-3-(5-chloro-2-methylphenyl)isoquinolin-1-amine] | 0.15 µM
